Test results as given in US8946381B2, “Compositions and uses thereof for the treatment of wounds” (Phylogica Limited, priority 2006, dated 2015).
Entries after “also recorded” stand apart in the source; their conditions may differ.

Tests used:
[1] = system: apoptosing epidermal cells surrounding the burn injury; test: TUNEL assay on burn wound tissue sections; type: in vivo, C57/B16 mice; conditions: one day after burning
Experimental: A full-thickness burn wound was generated in a murine subject using a modified protocol based on a model previously described (Bruen et al., J Surg Res, 120: 12-20, 2004). Briefly, mice (n=34) were anesthetised (xylazine (10 mg/kg) and ketamine (100 mg/kg)) and subsequently given a full-thickness 10 mm diameter burn by contact with a brass rod (65 g) heated to 95° C. and applied for 9 seconds. 10 control animals were sacrificed post-burn, and histology confirmed all burns were full-thickness. The remaining animals (n=24) were re-hydrated and given analgesics subcutaneously immediately post-burn. The wounds were then dressed using a Tegapore™ membrane dressing (3M Healthcare Ltd) and either phosphate buffered saline (PBS) or PBS containing 20 μM peptide were instilled into the Tegapore™ and administered topically. The mice were then wrapped with a secondary absorbent dressing with minimal pressure so as not to constrict breathing and to allow free movement of the animal after recovery. […]
Tissue sections were labelled using TUNEL (Tdt-mediated dUTP Nick End Labelling) assay as previously described 13. […] Intensity of TUNEL staining was quantitated using Image J software (available from The National Institutes of Health, USA). Intensity of staining of individual nuclei were measured and normalised against the background. […]

[2] = system: full-thickness burn wound; test: full-thickness burn wound model in mice, gross morphology and re-epithelialisation; type: in vivo, C57/B16 mice
Experimental: 8 week old C57/B16 mice were purchased from the Animal Resource Center, Murdoch University, Western Australia and used for all experiments. All experiments were approved by the necessary institutional animal ethics committees and were performed in accordance with the National Health and Medical Research Council (NHMRC) Australian Code of Practice for the Care and Use of Animals for Scientific Purposes.
A full-thickness burn wound was generated in a murine subject using a modified protocol based on a model previously described (Bruen et al., J Surg Res, 120: 12-20, 2004). Briefly, mice (n=34) were anesthetised (xylazine (10 mg/kg) and ketamine (100 mg/kg)) and subsequently given a full-thickness 10 mm diameter burn by contact with a brass rod (65 g) heated to 95° C. and applied for 9 seconds. 10 control animals were sacrificed post-burn, and histology confirmed all burns were full-thickness. The remaining animals (n=24) were re-hydrated and given analgesics subcutaneously immediately post-burn. The wounds were then dressed using a Tegapore™ membrane dressing (3M Healthcare Ltd) and either phosphate buffered saline (PBS) or PBS containing 20 μM peptide were instilled into the Tegapore™ and administered topically. The mice were then wrapped with a secondary absorbent dressing with minimal pressure so as not to constrict breathing and to allow free movement of the animal after recovery. Ten minutes post-injury, dressings were removed and animals allowed to recover from anesthesia in their cages with feed and water provided ad libitum.
Wounds were harvested on post-injury days 1, 3, 7 and 11 (n=3 for each time-point for both treated and control groups). Each wound was bisected along the cranial-caudal axis and one half of the tissue fixed in 4% paraformaldehyde solution and the other half stored as frozen tissue. Haematoxylin and Eosin stained sections were used to determine the quality of wound healing.
Progress of re-epithelialisation was quantitated by measuring distance between leading epithelial edges using an eye-piece graticule on histological slides. Difference between treated and control wounds was analysed using standard two-tail t-TEST for two-samples assuming unequal variance. p<0.05 is defined as the level of statistical significance.

HaCaT keratinocytes = test: MTT colorimetric proliferation assay, keratinocytes; type: cell-based; conditions: 100 nm, 1 μM or 10 μM, 24, 48 or 72 hours
Experimental: (§1) Cultures of keratinocytes (HaCaT cells) or fibroblasts were cultured in a microwell plate the presence of a peptide analog comprising the amino acid sequence set forth in SEQ ID NO: 104 at a concentration of 100 nm, 1 μM or 10 μM. Following an incubation period 24 hours, 48 hours, or 72 hours, cells were incubated in the presence of MTT for a sufficient time for a mitochondrial dehydrogenase enzyme from viable cells to cleave the tetrazolium rings of the pale yellow MTT and form dark blue formazan crystals. Cells were then solubilized and the level of […] crystals determined using a microtitre plate reader at 492 nm.

fibroblast cells = test: MTT colorimetric proliferation assay, fibroblasts; type: cell-based; conditions: 100 nm, 1 μM or 10 μM, 24, 48 or 72 hours
Experimental: as §1

H-rerrsssqiGGsrisqyaGrrrqrrkkrG-NH2 [SEQ ID NO: 104]
TUNEL staining intensity vs control ([1]; 500 μm from the wound edge): marked difference in intensity | TUNEL positive staining in epidermis ([1]; 1500 μm from the wound edge): complete lack of positive staining | gross morphology of wound ([2]; day 7 post-burn): Early reepithelialization is present and separation of the eschar evident | gap without epidermis (not re-epithelialized) ([2]; day 7 post-burn, 20 μM peptide in PBS topical): 2 mm | re-epithelialization of wound ([2]; day 11 post-burn, 20 μM peptide in PBS topical): re-epithelialized by day 11; also recorded: all the treated wounds are covered; also recorded: completely re-epithelialized | eschar diameter ([2]; day 11 post-burn, 20 μM peptide in PBS topically via Tegapore dressing for ten minutes): < 2 mm | scarring (de novo hair follicle morphogenesis) ([2]; day 11 post-burn, histology): scarring has not occurred | wound size between leading epidermal edges ([2]; within 24 hours post-injury, 20 μM peptide in PBS topical): 10 mm | cellular proliferation (MTT) vs untreated cells (HaCaT keratinocytes): increased cellular proliferation rates; also recorded: enhanced and/or induced proliferation | cellular proliferation (MTT) (fibroblast cells): did not stimulate proliferation
